Experiments:
[1] = biological target: Isocitrate lyase (Magnaporthe oryzae (strain 70-15 / FGSC 8958) (Rice blast fungus)(Pyricularia oryzae), UniProt P0CT06); assay: Inhibition of Magnaporthe grisea Guy 11 isocitrate lyase; parameters: species or system Pyricularia grisea
[2] = Inhibition of Magnaporthe grisea Guy 11 malate synthase; parameters: species or system Pyricularia grisea
[3] = tested on: Pyricularia grisea; assay: Growth inhibition of Magnaporthe grisea Guy 11 in presence of glucose after 6 days; assay type: functional; settings: Guy 11, 144 h
[4] = tested on: Pyricularia grisea; assay: Growth inhibition of Magnaporthe grisea Guy 11 in presence of sodium acetate after 6 days; assay type: functional; settings: Guy 11, 144 h
[5] = tested on: Pyricularia grisea; assay: Reduction of appressorium formation in wild type Magnaporthe grisea Guy 11 after 14 hrs; assay type: functional, organism-based

Sequence of Isocitrate lyase (P0CT06 whole entry): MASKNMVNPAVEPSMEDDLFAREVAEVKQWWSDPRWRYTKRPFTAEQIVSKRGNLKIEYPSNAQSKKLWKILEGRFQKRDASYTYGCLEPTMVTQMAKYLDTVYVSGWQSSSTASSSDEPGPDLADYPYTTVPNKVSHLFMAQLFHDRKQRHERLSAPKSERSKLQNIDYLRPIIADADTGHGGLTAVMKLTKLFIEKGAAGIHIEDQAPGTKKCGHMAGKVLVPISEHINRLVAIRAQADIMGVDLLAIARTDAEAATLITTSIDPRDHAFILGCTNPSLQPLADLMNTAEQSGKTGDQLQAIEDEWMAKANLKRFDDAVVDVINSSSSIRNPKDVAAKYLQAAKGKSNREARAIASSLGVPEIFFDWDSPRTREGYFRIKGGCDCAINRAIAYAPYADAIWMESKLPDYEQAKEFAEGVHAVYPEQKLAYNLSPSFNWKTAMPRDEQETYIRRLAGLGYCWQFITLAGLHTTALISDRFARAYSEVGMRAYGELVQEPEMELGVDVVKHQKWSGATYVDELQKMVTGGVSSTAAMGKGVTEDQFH

Compound | IC50 [1] | IC50 [2] | MIC [3] | MIC [4] | Activity [5]
O=C(O)CC[N+](=O)[O-] | 92.4 µM | 1570 µM | > 3360 µM | 2940 µM | –
CC1=CC[C@H]2C(C)(C)CCC[C@]2(C)[C@H]1C[C@@H](OS(=O)(=O)O)[C@H](C)CCC/C(C)=C/Cc1cc(O)ccc1O [HALISULFATE 1] | 12.6 µM | 227 µM | 701 µM | 87.7 µM | Dose-dependent effect
C=C1CCC[C@@H]2[C@@](C)(CCC(CCCc3ccoc3)COS(=O)(=O)O)[C@H](C)CC[C@]12C (some centres undefined) [HALISULFATE 5] | 67.4 µM | 1150 µM | 853 µM | 107 µM | Dose-dependent effect
CC1=CC[C@H]2C(C)(C)CCC[C@]2(C)[C@H]1C[C@@H](O)[C@H](C)CCC/C(C)=C/Cc1cc(O)ccc1O [HYDROHALISULFATE 1] | 15 µM | 274 µM | 843 µM | 105 µM | Dose-dependent effect

Source: ChEMBL document CHEMBL1144623, “Sesterterpene sulfates as isocitrate lyase inhibitors from tropical sponge Hippospongia sp” (Bioorg Med Chem Lett, 2007)
